Converted amounts (≈) assume the structure as drawn. The source made the active and inactive calls. The rule behind the calls is not given here.
Legend:
HepG2 [1] = assay: Cytotoxicity against human HepG2 cells assessed as reduction in cell viability; format: functional
Escherichia coli = assay: Antibacterial activity against Escherichia coli ATCC 25922 assessed as inhibition of visible bacterial growth by CLSI based broth-microdilution method; format: functional
HEK293 [2] = assay: Cytotoxicity against HEK293 cells assessed as reduction in cell viability at 7 uM; format: toxicity, cell-based; settings: human, hek293, 7 µM
Pseudomonas aeruginosa [3] = assay: Antibacterial activity against Pseudomonas aeruginosa PAO1 assessed as inhibition of visible bacterial growth by CLSI based broth-microdilution method; format: functional
HepG2 [4] = assay: Cytotoxicity against human HepG2 cells assessed as inhibition of cell vitality at 162 uM; format: functional; parameters: scale not given: the % may be the effect or the level left
Acinetobacter baumannii = assay: Antibacterial activity against Acinetobacter baumannii ATCC 17978 assessed as inhibition of visible bacterial growth by CLSI based broth-microdilution method; format: functional
Pseudomonas aeruginosa [5] = assay: Antibacterial activity against Pseudomonas aeruginosa PA200 assessed as inhibition of visible bacterial growth by CLSI based broth-microdilution method; format: functional
Pseudomonas aeruginosa [6] = assay: Antibacterial activity against Pseudomonas aeruginosa PA100036 assessed as inhibition of visible bacterial growth by CLSI based broth-microdilution method; format: functional
Pseudomonas aeruginosa [7] = assay: Antibacterial activity against Pseudomonas aeruginosa PA264 assessed as inhibition of visible bacterial growth by CLSI based broth-microdilution method; format: functional
Pseudomonas aeruginosa [8] = assay: Antibacterial activity against Pseudomonas aeruginosa PA101243 assessed as inhibition of visible bacterial growth by CLSI based broth-microdilution method; format: functional
Pseudomonas aeruginosa [9] = assay: Antibacterial activity against Pseudomonas aeruginosa PA095 assessed as inhibition of visible bacterial growth by CLSI based broth-microdilution method; format: functional
Pseudomonas aeruginosa [10] = assay: Antibacterial activity against Pseudomonas aeruginosa PA114228 assessed as inhibition of visible bacterial growth by CLSI based broth-microdilution method; format: functional
Pseudomonas aeruginosa [11] = assay: Antibacterial activity against Pseudomonas aeruginosa PA262 assessed as inhibition of visible bacterial growth by CLSI based broth-microdilution method; format: functional
Pseudomonas aeruginosa [12] = assay: Antibacterial activity against Pseudomonas aeruginosa PA259 assessed as inhibition of visible bacterial growth by CLSI based broth-microdilution method; format: functional
Pseudomonas aeruginosa [13] = assay: Synergistic antibacterial activity against Pseudomonas aeruginosa PAO1 assessed as fold change in minocycline MIC by checkerboard analysis relative to minocycline alone; format: functional
Pseudomonas aeruginosa [14] = assay: Synergistic antibacterial activity against Pseudomonas aeruginosa PAO1 assessed as fold change in tigecycline MIC by checkerboard analysis relative to Tigecycline alone; format: functional
Pseudomonas aeruginosa [15] = assay: Synergistic antibacterial activity against Pseudomonas aeruginosa PAO1 assessed as fold change in doxycycline MIC by checkerboard analysis relative to doxycycline alone; format: functional
Pseudomonas aeruginosa [16] = assay: Synergistic antibacterial activity against Pseudomonas aeruginosa PAO1 assessed as fold change in eravacycline MIC by checkerboard analysis relative to eravacycline alone; format: functional
HepG2 [17] = assay: Cytotoxicity against human HepG2 cells assessed as reduction in cell viability at 400 uM; format: functional, cell-based
HEK293 [18] = assay: Cytotoxicity against HEK293 cells assessed as reduction in cell viability at 162 uM; format: toxicity, cell-based; settings: human, hek293, 162 µM

| Structure (SMILES) | Activity (HepG2 [1]) | MIC (Escherichia coli) | Activity (HEK293 [2]) | MIC (Pseudomonas aeruginosa [3]) | Activity (HepG2 [4]) | MIC (Acinetobacter baumannii) | MIC (Pseudomonas aeruginosa [5]) | MIC (Pseudomonas aeruginosa [6]) | MIC (Pseudomonas aeruginosa [7]) | MIC (Pseudomonas aeruginosa [8]) | MIC (Pseudomonas aeruginosa [9]) | MIC (Pseudomonas aeruginosa [10]) | MIC (Pseudomonas aeruginosa [11]) | MIC (Pseudomonas aeruginosa [12]) | fold change (FC) (Pseudomonas aeruginosa [13]) | fold change (FC) (Pseudomonas aeruginosa [14]) | fold change (FC) (Pseudomonas aeruginosa [15]) | fold change (FC) (Pseudomonas aeruginosa [16]) | Activity (HepG2 [17]) | Activity (HEK293 [18]) |
| --- | --- | --- | --- | --- | --- | --- | --- | --- | --- | --- | --- | --- | --- | --- | --- | --- | --- | --- | --- | --- |
| Cl.Cl.Cl.Cl.Cl.Cl.NC[C@H]1O[C@H](O[C@H]2[C@H](OCCOCCOCCOCCNC(=O)c3cn(C4CC4)c4cc(N5CCNCC5)c(F)cc4c3=O)[C@@H](O[C@H]3O[C@H](CO)[C@@H](O)[C@H](N)[C@H]3O)[C@H](N)C[C@@H]2N)[C@H](N)C[C@@H]1O | 60% | > 128 µg/mL | Non-toxic | > 120 µg/mL | 60% | > 128 µg/mL |  |  |  |  |  |  |  |  |  |  |  |  |  |  |
| CCCCCCCCCCCCNC(=O)c1cn(C2CC2)c2cc(N3CCNCC3)c(F)cc2c1=O.Cl |  | > 128 µg/mL |  | > 120 µg/mL |  | > 128 µg/mL |  |  |  |  |  |  |  |  |  |  |  |  |  |  |
| CN(C)c1ccc(O)c2c1C[C@H]1C[C@H]3[C@H](N(C)C)C(O)=C(C(N)=O)C(=O)[C@@]3(O)C(O)=C1C2=O [MINOCYCLINE] |  |  |  |  |  |  | 0.5 µg/mL (≈ 1.09 µM) | 128 µg/mL (≈ 280 µM) | 128 µg/mL (≈ 280 µM) | 8 µg/mL (≈ 17.5 µM) | 64 µg/mL (≈ 140 µM) | 256 µg/mL (≈ 560 µM) | 256 µg/mL (≈ 560 µM) | 128 µg/mL (≈ 280 µM) |  |  |  |  |  |  |
| NC[C@H]1O[C@H](O[C@H]2[C@H](O)[C@@H](O[C@H]3O[C@H](CO)[C@@H](O)[C@H](N)[C@H]3O)[C@H](N)C[C@@H]2N)[C@H](N)C[C@@H]1O [TOBRAMYCIN] |  | 2 µg/mL (≈ 4.28 µM) |  | 0.5 µg/mL (≈ 1.07 µM) |  | 0.5 µg/mL (≈ 1.07 µM) |  |  |  |  |  |  |  |  |  |  |  |  |  |  |
| C[C@H]1c2cccc(O)c2C(=O)C2=C(O)[C@]3(O)C(=O)C(C(N)=O)=C(O)[C@@H](N(C)C)[C@@H]3[C@@H](O)[C@@H]21 [DOXYCYCLINE ANHYDROUS] |  |  |  |  |  |  | 1 µg/mL (≈ 2.25 µM) | > 128 µg/mL | > 64 µg/mL | 16 µg/mL (≈ 36 µM) | 64 µg/mL (≈ 144 µM) | 64 µg/mL (≈ 144 µM) | > 512 µg/mL | 64 µg/mL (≈ 144 µM) |  |  |  |  |  |  |
| Cl.Cl.Cl.Cl.Cl.Cl.NC[C@H]1O[C@H](O[C@H]2[C@H](OCCCCCCCCNC(=O)c3cn(C4CC4)c4cc(N5CCNCC5)c(F)cc4c3=O)[C@@H](O[C@H]3O[C@H](CO)[C@@H](O)[C@H](N)[C@H]3O)[C@H](N)C[C@@H]2N)[C@H](N)C[C@@H]1O | 69% | > 128 µg/mL | Non-toxic | > 120 µg/mL | 55% | > 128 µg/mL |  |  |  |  |  |  |  |  | 4 | 4 | 4 | 4 |  |  |
| CN(C)c1cc(NC(=O)CNC(C)(C)C)c(O)c2c1C[C@H]1C[C@H]3[C@H](N(C)C)C(O)=C(C(N)=O)C(=O)[C@@]3(O)C(O)=C1C2=O [TIGECYCLINE] |  |  |  |  |  |  | 1 µg/mL (≈ 1.71 µM) | 64 µg/mL (≈ 109 µM) | 32 µg/mL (≈ 54.6 µM) | 8 µg/mL (≈ 13.7 µM) | 32 µg/mL (≈ 54.6 µM) | 64 µg/mL (≈ 109 µM) | 64 µg/mL (≈ 109 µM) | 32 µg/mL (≈ 54.6 µM) |  |  |  |  |  |  |
| Cl.Cl.Cl.Cl.Cl.Cl.NC[C@H]1O[C@H](O[C@H]2[C@H](OCc3ccc(-c4ccc(CNC(=O)c5cn(C6CC6)c6cc(N7CCNCC7)c(F)cc6c5=O)cc4)cc3)[C@@H](O[C@H]3O[C@H](CO)[C@@H](O)[C@H](N)[C@H]3O)[C@H](N)C[C@@H]2N)[C@H](N)C[C@@H]1O | 88% | > 128 µg/mL | Non-toxic | > 120 µg/mL | 40% | > 128 µg/mL |  |  |  |  |  |  |  |  | 16 | 16 | 16 | 16 | Active | 27% |
| CN(C)[C@@H]1C(O)=C(C(N)=O)C(=O)[C@@]2(O)C(O)=C3C(=O)c4c(O)c(NC(=O)CN5CCCC5)cc(F)c4C[C@H]3C[C@@H]12 [ERAVACYCLINE] |  |  |  |  |  |  | 0.5 µg/mL (≈ 0.895 µM) | 32 µg/mL (≈ 57.3 µM) | 32 µg/mL (≈ 57.3 µM) | 8 µg/mL (≈ 14.3 µM) | 32 µg/mL (≈ 57.3 µM) | 16 µg/mL (≈ 28.6 µM) | 64 µg/mL (≈ 115 µM) | 32 µg/mL (≈ 57.3 µM) |  |  |  |  |  |  |
| CC(=O)NCCCCCCCCCCCCO[C@@H]1[C@@H](O[C@H]2O[C@H](CO)[C@@H](O)[C@H](N)[C@H]2O)[C@H](N)C[C@H](N)[C@H]1O[C@H]1O[C@H](CN)[C@@H](O)C[C@H]1N.Cl.Cl.Cl.Cl.Cl |  | > 128 µg/mL |  | > 120 µg/mL |  | > 128 µg/mL |  |  |  |  |  |  |  |  | 4 | 1 | 8 |  |  |  |

Source: ChEMBL document CHEMBL6078622, “Enhancing outer membrane permeability of tetracycline antibiotics in P. aeruginosa using TOB-CIP conjugates” (RSC Med Chem, 2024)
